# Source: patent US20080090916A1, “Compounds for Treating Urinary Incontinence” (priority 2005, published 2008)
# Entries after “also recorded” stand apart in the source; their conditions may differ.
# Columns and labels:
# [1] = system: pig vesicourethral junction sphincter muscle; assay: Functional assay: dose response on isolated pig vesicourethral junction sphincter muscle strips; format: cell-based
# From the text: Samples of female white landrace pig bladder and urethra were obtained from freshly slaughtered pigs at the local abattoir. The pigs were killed by exsanguination after initial stunning by electric shock. The anus, rectum, bladder and urethra were then excised en bloc during evisceration and immediately transferred into pre oxygenated Krebs' solution (1 mmol/l: NaCl 120, KCl 5.9 NaHCO3 15.4, CaCl2 2.5, MgCl2 1.2, glucose 11.5) and transported to the laboratory, where they were stored in the refrigerator (at 4° C.) until ready to be processed.
# The location of the vesicourethral junction sphincter was then identified. The bladders were inflated via a transurethral catheter with 200 ml. fluid. The fluid was then gently squeeze towards the outlet, until a sharp narrowing of the bladder base becomes apparent (Dass, 1997; Dass et al., 2001). Tissue sections from this region were then denuded of urothelium, and dissected transversely into a number of muscle strips.
# Muscle strips measuring about 5-6 mm by 2-3 mm with an average weight of 7 mg were dissected, fine (5/0) silk threads were tied at each end of the strips and each strip mounted vertically in a 0.2 ml capacity, perspex organ bath between two recessed platinum electrodes through which electrical field stimulation (EFS) could be delivered. Strips were constantly superfused with Krebs' solution (37° C.) at a rate of 1.5 ml 1 min. The Krebs' solutions were gassed with 97% oxygen 3% carbon dioxide. Drugs were delivered by substituting drug containing solutions of the desired concentration for Krebs' solutions.
# The apparatus comprised of six organ baths in parallel allowing the study of six strips simultaneously as described by Brading and Sibley (1983). Each channel was calibrated with a 1 g weight attached to the transducer before each experiment, and tissues were tensioned to 1 g after mounting. Isomeric tension generated by the strips was measured using isomeric force displacement transducers, Pioden Dynamometer UFI transducers (Pioden Controls Ltd, Canterbury, Kent) or AD Instruments MLT050/D force transducers, amplified (Harvard Transducer/Amplifier, Harvard Apparatus Ltd, Edenbridge, Kent) and analyzed using MacLab Data Acquisition system (AD Instruments, Sydney, Australia) or AD Instruments OCTAL Bridge Amplifier connected to Power Lab/8SP (AD Instruments, Sydney, Australia) and Chart v3.6 software (Macintosh) or Chart v5 (PC).
# Dose response curves for the various compounds were constructed by testing one drug on a pair of strip in each experiment. The preparations were subjected to a sequence of successive 10 s […] applications of increasing doses of drugs with intervening washout periods.
# 1R,2S-methoxamine hydrochloride, the compound of formula (Ia) and the compound of formula (III) were made available by Norgine International Research, Middlesex.
# Responses were reported as either grams of tension or % maximum force and given as mean values ±SEM. EC50 values were used as a measure of potency. The EC50 values were measured from the graph of dose response curve using the kaleidograph graphical software applications. Results were assessed using statistical analysis software, StatView 5.0 (SAS Institute Inc.) using ANOVA followed by Fisher's test. Significant difference between data was assumed with p<0.05.
# [2] = In vitro percutaneous absorption (skin permeation) of saturated solutions, modified Franz cell; format: in vitro ADME, human; settings: dissolved in IPM/Pharmasolve 80:20 (v/v), compared with control solution
# Experimental: For all experiments (one run with 9 cells) skin from one patient was used. The skin was excised full skin from surgery of the thigh, cleaned from adhering fat tissue, stored at −18° C. prior to use but not for longer than 6 months.
# In vitro skin permeation investigation was performed as described in this Example.
# The flux was calculated for every formulation by means of linear regression (performance with Excel software; regression coefficient to be >0.98) from the mean cumulative permeated amounts in μg/cm^2 during steady state against the time in hours. For test solution #1 the linear regression was calculated from 12-48 hours (not until 72 hours, because after 48 hours the permeation was decreasing). […] The lag-time (which was the time when steady state of permeation was starting after application) was taken from the intersection of the regression line with the time axis.
# The transdermal delivery rate was assumed to be the same in vivo as it is in vitro (this must, of course, be proven by further kinetic studies). The patch size was set to 20 cm^2, which is middle sized (small patches are 5 cm^2; big patches are 60 cm^2) and the delivery rate was calculated daily (1 day=24 hours).
# (flux rate steady state [μg/cm^2/h]×20 [cm^2]×24[h])/1000=delivery rate [mg/20 cm^2/24 h].
# [3] = Solubility concentration of saturated solutions determined by HPLC; format: physicochemical
# Experimental: The tightness of the cells and absence of air bubbles in the receptor phase was monitored and given at each sampling point.
# So, from manufacturing of the solutions, the amount of the compound of formula (Ia) per solvent volume was known (documentation by balance print out). That amount was named a saturated solution. Afterwards the saturated solution was centrifuged and the solubility concentration of the clear supernatant of the solution was determined quantitatively by HPLC. The saturation factor was calculated from the ratio of saturated solution:solubility concentration. A high ratio represented a high level of infinite dose.
compound,measurement,setting,value
"COc1ccc(OC)c([C@@H](O)[C@H](C)NC(=O)CC[C@H](N)C(=O)O)c1 [compound of formula (Ia), (S)-2-Amino-4-[(1S,2R)-2-(2,5-dimethoxyphenyl)-2-hydroxy-1-methyl-ethylcarbamoyl]butyric acid]",EC50,"[1]; Sus scrofa, contraction, from dose response curve, read-out: relative potencies (EC50)",4.64 mM
same,contractile response of muscle strip (representative traces),"[1]; compound alone, FIG. 1",no significant contraction; also recorded: little or no activity
same,response over the dose range tested,[1]; dose range 10^−6M-10^−2M,failed to evoke any appreciable response
same,enhancement factor for percutaneous absorption,[2],13.84
same,saturation concentration in the acceptor medium,"[3]; 0.9% NaCl 80%, PEG 400 20%, 0.1% NaN3",130 mg/mL
same,solubility in Ethanol,[3]; Ethanol,high solubility
same,water solubility,[3]; water,high
same,solubility in both media,[3]; water and DMSO,high solubility
